Reference: patent US9713613B2, “Methods and compositions for the treatment of cancer and related hyperproliferative disorders” (priority 2007, dated 2017)

How the values were obtained:
PLAP-BP2 = PLAP-BP2 cleavage assay in CHO-K1 cells; type: cell-based, Chinese hamster; conditions: 20 μM
From the text: To determine if fatostatin affects the ER-Golgi translocation and proteolytic processing of SREBPs, a reporter assay developed by Sakai et al. (1998) was used. PLAP-BP2 in transfected CHO-K1 cells remains membrane-bound unless it is cleaved by S1P in the Golgi and secreted into the culture medium. In the assay, a secreted alkaline phosphatase, fused with an SREBP-2 fragment lacking the NH2-terminal DNA-binding domain (PLAP-BP2513-1141), permits monitoring of translocation and processing through changes in the fluorescence of a fluorogenic phosphatase substrate (FIG. 18C). When cells were co-transfected with plasmids encoding PLAP-BP2513-1141 and SCAP, PLAP phosphatase was secreted, generating fluorescence signals. […] The fatostatin-mediated inhibition of SREBP activation was confirmed by western blot analysis of SREBPs. […] Similar results were obtained for SREBP-1 (FIG. 22).
PLAP-BP2 Cleavage. On day 0, CHO-K1 cells were plated out onto a 96-well plate in medium A. On day 2, the cells were transiently co-transfected with pCMV-PLAP-BP2(513-1141), pCMV-SCAP and pAc-β-gal, using Lipofectamine reagent (Invitrogen). […]

ob/ob mice = experiment: GC-MS analyses of fatty acids in the livers of ob/ob mice; type: in vivo, mouse
Experimental: Liver samples (100 mg) obtained from fatostatin A-treated ob/ob mice and non-treated control mice and stored at −80° C. until analyzed for fatty acid contents. The fatty acids were extracted according to Folch's protocol and quantitatively analyzed using gas chromatography-mass spectrometry (GC-SM). As shown in the above table, there is about 50% reduction of C14:0 and C16:0, the products of the de novo fatty acid synthesis, and about 70% reduction of monounsaturated fatty acids C16:1, C18:1 and C20:1 and their elongation-desaturation products (C18:2)N-6, (C18:3)N-6, (C20:2)N-6, (C20-3)N-6 and (C20:5)N-3. Myristate (C14:0) and palmitate (C16:0), the products of FAS, were reduced by about 50% (P<0.05). There was no change in C18 levels, which is derived not only from de novo fatty acid synthesis by FAS, but also from food and chain elongation system. […] Also, the levels of polyunsaturated long-chain fatty acids (18:2)N-6, (18:3)N-6, (20:2)N-6, (20:3)N-6 and (20:5)N-3 were reduced 30-60%. These reductions are the result of down regulation of key enzymes in the lipogenic pathways (FAS, ACC and SCD, ACL) at transcription and translation.
Four- to 5-week old homozygous male obese (ob/ob) mice (C57BL/6J, The Jackson Laboratory, Bar Harbor, Me.) were housed under controlled conditions (12-hr light/dark cycle; 25° C.). The animals were housed 5 per cage and had ad libitum access to standard laboratory chow (Purina Mills, Richmond Ind.) and water for one week after their arrival. On first day of the experiment and every day thereafter the weight of the mice and the amount of the food consumed were measured. The weight of mice and food remaining were measured daily between 3-5 p.m. before the ip injection of fatostatin A (30 mg/kg; 150 μL). The administration of Fatostatin A or 10% DMSO in PBS to control groups (n=5) continued daily for four weeks till the end of the study.

CCCc1cc(-c2nc(-c3ccc(C)cc3)cs2)ccn1 [Compound 1, 2-propyl-4-(4-p-tolylthiazol-2-yl)pyridine]
secretion of PLAP phosphatase (PLAP-BP2 cleavage) (PLAP-BP2): decreased
Fatty Acid (14:0) Ratio treated:control (ob/ob mice; ob/ob mice liver): 0.5148
Fatty Acid (16:0) Ratio treated:control (ob/ob mice; ob/ob mice liver): 0.4367
Fatty Acid (16:1) Ratio treated:control (ob/ob mice; ob/ob mice liver): 0.3285
Fatty Acid (18:0) Ratio treated:control (ob/ob mice; ob/ob mice liver): 1.066
Fatty Acid (18:1) Ratio treated:control (ob/ob mice; ob/ob mice liver): 0.2922
Fatty Acid (18:2)N-6 Ratio treated:control (ob/ob mice; ob/ob mice liver): 0.638
Fatty Acid (18:3)N-3 Ratio treated:control (ob/ob mice; ob/ob mice liver): 1.218
Fatty Acid (18:3)N-6 Ratio treated:control (ob/ob mice; ob/ob mice liver): 0.4232
Fatty Acid (20:0) Ratio treated:control (ob/ob mice; ob/ob mice liver): 0.8517
Fatty Acid (20:1) Ratio treated:control (ob/ob mice; ob/ob mice liver): 0.3245
Fatty Acid (20:2)N-6 Ratio treated:control (ob/ob mice; ob/ob mice liver): 0.4668
Fatty Acid (20:3)N-6 Ratio treated:control (ob/ob mice; ob/ob mice liver): 0.6297
Fatty Acid (20:4)N-6 Ratio treated:control (ob/ob mice; ob/ob mice liver): 1.125
Fatty Acid (20:5)N-3 Ratio treated:control (ob/ob mice; ob/ob mice liver): 0.6994
Fatty Acid (22:0) Ratio treated:control (ob/ob mice; ob/ob mice liver): 1.266
Fatty Acid (22:1) Ratio treated:control (ob/ob mice; ob/ob mice liver): 0.871
Fatty Acid (22:4)N-6 Ratio treated:control (ob/ob mice; ob/ob mice liver): 0.959
Fatty Acid (22:5)N-3 Ratio treated:control (ob/ob mice; ob/ob mice liver): 0.7357
Fatty Acid (22:5)N-6 Ratio treated:control (ob/ob mice; ob/ob mice liver): 1.18
Fatty Acid (22:6)N-3 Ratio treated:control (ob/ob mice; ob/ob mice liver): 1.058
Fatty Acid (24:0) Ratio treated:control (ob/ob mice; ob/ob mice liver): 1.308
Fatty Acid (24:1) Ratio treated:control (ob/ob mice; ob/ob mice liver): 1.699
Fatty Acid (16:0) in liver (ob/ob mice; treated ob/ob mice): 37100 ± 3660 nmol/g liver
Fatty Acid (16:1) in liver (ob/ob mice; treated ob/ob mice): 11400 ± 228 nmol/g liver
Fatty Acid (18:0) in liver (ob/ob mice; treated ob/ob mice): 15100 ± 916 nmol/g liver
Fatty Acid (18:1) in liver (ob/ob mice; treated ob/ob mice): 44500 ± 8840 nmol/g liver
Fatty Acid (18:2)N-6 in liver (ob/ob mice; treated ob/ob mice): 29700 ± 2460 nmol/g liver
Fatty Acid (20:0) in liver (ob/ob mice; treated ob/ob mice): 164 ± 22.9 nmol/g liver
Fatty Acid (22:0) in liver (ob/ob mice; treated ob/ob mice): 116 ± 26 nmol/g liver
Fatty Acid (24:0) in liver (ob/ob mice; treated ob/ob mice): 158 ± 7.02 nmol/g liver
increase in C24:0 in livers (ob/ob mice; vs untreated control mice): 30%
lowering of C20:0 in livers (ob/ob mice; vs untreated control mice): about 15%
reduction of (18:2)N-6, (18:3)N-6, (20:2)N-6, (20:3)N-6 and (20:5)N-3 in livers (ob/ob mice; vs untreated control mice): 30-60%
reduction of (C18:2)N-6, (C18:3)N-6, (C20:2)N-6, and (C20-3)N-6 in livers (ob/ob mice; vs untreated control mice): about 50%
reduction of C14:0 and C16:0 in livers (ob/ob mice; vs untreated control mice): about 50%
reduction of monounsaturated fatty acids C16:1, C18:1 and C20:1 in livers (ob/ob mice; vs untreated control mice): about 70%
